The source of these data is the supplement of paper PMC10307832.

Test in all cases: relative viability (nuclei count vs DMSO), 5 days (fraction); higher = more cells survive
Compound in the assay “Vismodegib + Olaparib”: CS(=O)(=O)c1ccc(C(=O)Nc2ccc(Cl)c(-c3ccccn3)c2)c(Cl)c1 [Vismodegib] + O=C(c1cc(Cc2n[nH]c(=O)c3ccccc23)ccc1F)N1CCN(C(=O)C2CC2)CC1 [Olaparib] (partner 8 µM)
Put shortly: (§1)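 Lung cancer cell lines were pin-tool dosed in 1536-well plates on the day after seeding, with either a lone drug or a fixed anchor-drug dose plus five library-drug doses (not always all listed) in √10 steps. Nuclei were counted on 4× images after 5 days. Relative viability is the ratio of treated-well to vehicle-well nuclei counts, with each value a median of duplicate plates.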

Compound in the assay “VE-821 + Crizotinib”: CS(=O)(=O)c1ccc(-c2cnc(N)c(C(=O)Nc3ccccc3)n2)cc1 [VE-821] + C[C@@H](Oc1cc(-c2cnn(C3CCNCC3)c2)cnc1N)c1c(Cl)ccc(F)c1Cl [Crizotinib] (partner 1 µM)
Put shortly:
as §1

Compound in the assay “Ruxolitinib + OSI-027”: N#CC[C@H](C1CCCC1)n1cc(-c2ncnc3[nH]ccc23)cn1 [Ruxolitinib] + COc1cccc2cc(-c3nc([C@H]4CC[C@H](C(=O)O)CC4)n4ncnc(N)c34)[nH]c12 [OSI-027] (partner 0.5 µM)
Put shortly: as §1

Compound in the assay “VE-821 + Foretinib”: CS(=O)(=O)c1ccc(-c2cnc(N)c(C(=O)Nc3ccccc3)n2)cc1 [VE-821] + COc1cc2c(Oc3ccc(NC(=O)C4(C(=O)Nc5ccc(F)cc5)CC4)cc3F)ccnc2cc1OCCCN1CCOCC1 [Foretinib] (partner 0.25 µM)
Put shortly: as §1

Consider UMC-11, for which the relative viability came out at 0.416 in the assay with Vismodegib + Olaparib (first compound 0.08 µM); 0.361 with Vismodegib + Olaparib (first compound 0.253 µM); 0.376 with Vismodegib + Olaparib (first compound 0.8 µM); 0.473 with Vismodegib + Olaparib (first compound 2.53 µM); 0.373 in the assay with Vismodegib + Olaparib (first compound 8 µM); 0.85 with VE-821 + Crizotinib (first compound 0.08 µM). For the same cell line, the relative viability with VE-821 + Crizotinib (first compound 0.253 µM) amounted to 0.681; with VE-821 + Crizotinib (first compound 0.8 µM), 0.534; with VE-821 + Crizotinib (first compound 2.53 µM), 0.626; with VE-821 + Crizotinib (first compound 8 µM), 0.238; with Ruxolitinib + OSI-027 (first compound 0.08 µM), 0.474; in the assay with Ruxolitinib + OSI-027 (first compound 0.253 µM), 0.448. In addition, the relative viability was 0.561 with Ruxolitinib + OSI-027 (first compound 0.8 µM); 0.498 with Ruxolitinib + OSI-027 (first compound 2.53 µM); 0.574 in the assay with Ruxolitinib + OSI-027 (first compound 8 µM); 1.09 in the assay with VE-821 + Foretinib (first compound 0.08 µM); 1.01 in the assay with VE-821 + Foretinib (first compound 0.253 µM); 1.08 in the assay with VE-821 + Foretinib (first compound 0.8 µM). Further, the results for the relative viability in the assay with VE-821 + Foretinib (first compound 2.53 µM) and in the assay with VE-821 + Foretinib (first compound 8 µM) were 1.06 and 0.553, respectively.
